Experiments:
Format in all cases: in vivo, rat
[1] = system: male Sprague-Dawley rats; experiment: Monocrotaline pulmonary hypertension model, treatment from day 14: hydroxyproline (collagen) content of the lung; details: monocrotaline 60 mg/kg s.c. day 1; 0.25 mg/kg Lisuride bid or 2.5 mg/kg Terguride bid, days 14-28; right lung day 28; averages ± SEM, N=6
Method: (§1) 1 monocrotaline (60 mg/kg; Sigma) was administered to rats on the day of the experiment. For this purpose, the substance was dissolved in 0.5 molar hydrochloric acid and the pH value was then adjusted to 7.4 with 0.5 molar sodium hydroxide solution. The solution was administered to male Sprague-Dawley rats as a single subcutaneous injection in a dose of 60 mg/kg. The same volume of isotonic saline solution was administered to control animals.
(§2) The dosage specifications in this case relate to the free base of the substances. The substances were used as hydrogenmaleate salt or free base. They were introduced into distilled water in the presence of traces of ascorbic acid and administered by oesophageal tube in the morning and in the evening in a volume of 2 mL. The same quantity of water was administered to control animals.
After the pressure measurements had been performed, the rats were perfused with physiological saline solution. The right lung was removed, deep-frozen and processed for determining the collagen content. To this end, the tissue was first homogenized and analyzed, drawing on the method by Berg (Meths Enzymol. 82, 372 (1982)). […] The color complex created was measured photometrically at 560 nm and the hydroxprolin content of the samples was determined by means of a calibration curve. […]

[2] = system: male Sprague-Dawley rats; experiment: Monocrotaline pulmonary hypertension model, treatment from day 14: right ventricular and systemic pressure
Method: as §1, §2
(§3) On day 28 of the experiment, 2 hours after the last administration of the substance, the animals were put under general anesthesia using pentobarbital. Then, a tracheostomy was performed on the animals and the animals were respirated at 10 ml/kg and a frequency of […] (SAR830A/P; IITC). Anesthesia was maintained by inhalation of isoflurane.
The mean arterial pressure and the right ventricular systolic blood pressure were determined. The systemic arterial pressure was measured using a Millar catheter in the left carotid artery. A millar catheter with a pressure sensor (Millar Instruments, model SPR-534) was inserted through the right jugular vein and pushed up to the right ventricle of the heart and used for measuring the right ventricular pressure (RVSP). The signal was amplified by means of a HSE coupler Series 500 and supplied to a registration unit for evaluation.

[3] = system: male Sprague-Dawley rats; experiment: Monocrotaline pulmonary hypertension model, treatment days 1-28: muscularization of arterial capillary vessels of the lung; details: 0.4 mg/kg Terguride bid (table), lung arterial capillary vessels 20-50 μm, averages ± SD, N=4
Method: as §1
(§4) […] Terguride was introduced into distilled water in the presence of traces of ascorbic acid and administered by oesophageal tube in the morning and in the evening in a volume of 2 mL. The same quantity of physiological saline solution was administered to control animals.
The lungs were removed, fixated in formalin and embedded in paraffin. Paraffin sections were obtained and an immunohistochemical double staining was carried out according to standard protocols. Smooth muscle cells of the vessels were stained with an antibody against actin and the endothelium was stained by means of antibodies against von Willebrand factor. […] The vessels were subdivided into 3 categories: non-muscularized vessels with 20%, partially muscularized vessels with >20%, but <70%, and fully muscularized vessels with >70% lining of the cross-section of the vessel with smooth muscle cells.

[4] = system: male Sprague-Dawley rats; experiment: Monocrotaline pulmonary hypertension model, treatment days 1-28: RVSP and SAP; details: monocrotaline 60 mg/kg s.c. day 1, 0.4 mg/kg Terguride bid (table), measured day 28, averages ± SD, N=4
Method: as §1, §4, §3
The mean arterial pressure and the right ventricular systolic blood pressure were determined. The systemic arterial pressure was measured using a Millar catheter in the left carotid artery. […]

[5] = system: male Sprague-Dawley rats; experiment: Monocrotaline pulmonary hypertension model, treatment days 1-28: right ventricular hypertrophy; details: 0.4 mg/kg Terguride bid (table), dry weights, averages ± SD, N=4
Method: as §1, §4
After the pressure measurements had been performed, the rats were perfused with physiological saline solution. The heart was removed and prepared by dissection of the right ventricle, the septum as well as the left ventricle of each heart. The tissue preparations were freeze-dried and the dry weights were then determined by weighing out. For each individual animal, the quotient: weight of the right ventricle/weight of the left ventricle and septum (RV/LV+S) was determined from these animals as a measure for right ventricular hypertrophy.

[6] = monocrotaline 60 mg/kg s.c. day 1, 0.25 mg/kg Lisuride bid or 2.5 mg/kg Terguride bid by oesophageal tube, days 14-28, measured day 28, averages ± SEM, N=6

Row | Compound | Hydroxyproline content of the lung [1] | RVPsys (systolic pressure in the right ventricle) [2, 6] | Increase in pressure in the right ventricle (in words) ([2]; monocrotaline rats, therapy started 14 days after monocrotaline) | SAP (systemic arterial pressure) [2, 6] | Proportion of fully muscularized vessel [3] | Proportion of non-muscularized vessel [3] | Proportion of partially muscularized vessel [3] | RVSP (right ventricular systolic pressure) [4] | SAP (systemic arterial pressure) [4] | RV/LV + S (weight of right ventricle vs. weight of left ventricle and septum) [5]
1 | CCN(CC)C(=O)N[C@H]1C=C2c3cccc4[nH]cc(c34)C[C@H]2N(C)C1 [Lisuride, 3-(9,10-didehydro-6-methylergoline-8alpha-yl)-1,1-diethylurea] | 3.3 ± 0.8 ug/g protein | 43 ± 7 mmHg | reduces | – | – | – | – | – | – | –
2 | CCN(CC)C(=O)N[C@H]1C[C@@H]2c3cccc4[nH]cc(c34)C[C@H]2N(C)C1 [Terguride, (+)-1,1-diethyl-3-(6-methyl-8α-ergolinyl)-urea] | 2.7 ± 1.2 ug/g protein | 39 ± 3 mmHg | – | 111 ± 7 mmHg | 21.3 ± 12.6% | 1.9 ± 1.6% | 57.8 ± 14.6% | 36.4 ± 3.6 mmHg | 97.5 ± 15.2 mmHg | 0.33 ± 0.08

Source: patent US9695173B2, “Pharmaceutical compositions for the treatment of capillary arteriopathy” (SINOXA PHARMA GMBH, priority 2006, dated 2017)
